In US20200331925A1, “HETEROCYCLIC COMPOUNDS FOR THE TREATMENT OF ABNORMAL CELLULAR PROLIFERATION” (G1 Therapeutics, Inc., priority 2018, published 2020):

How the values were obtained:
Format in all cases: biochemical
CDK1/Cyclin B1 = CDK1/Cyclin B1 (Homo sapiens, UniProt P06493); test: CDK1/Cyclin B1 kinase assay (Nanosyn, Caliper microfluidic); settings: 12-point dose-response, ATP at Km (40 μM), 3 hr
Experimental: (§1) Selected compounds disclosed herein were tested in kinase assays by Nanosyn (Santa Clara, Calif.) to determine their inhibitory effect on selected CDKs. The assays were performed using microfluidic kinase detection technology (Caliper Assay Platform). The compounds were tested in 12-point dose-response format in singlicate at Kmfor ATP. Phosphoacceptor substrate peptide concentration used was 1 μM for all assays and Staurosporine was used as the reference compound for all assays. Specifics of each assay are as described below: CDK1/Cyclin B1: Enzyme concentration: 0.08 nM; ATP concentration: 40 μM; Incubation time: 3 hr.

CDK2/Cyclin A = CDK2/Cyclin A (Homo sapiens, UniProt P24941); test: CDK2/Cyclin A kinase assay (Nanosyn, Caliper microfluidic); settings: 12-point dose-response, ATP at Km (50 μM), 3 hr
Experimental: as §1, with “CDK2/Cyclin A:” for “CDK1/Cyclin B1:”, “0.1” for “0.08”, “50” for “40”

CDK2/Cyclin E = CDK2/Cyclin E (Homo sapiens, UniProt P24941); test: CDK2/Cyclin E kinase assay (Nanosyn, Caliper microfluidic); settings: 12-point dose-response, ATP at Km (100 μM), 3 hr
Experimental: as §1, with “CDK2/Cyclin E:” for “CDK1/Cyclin B1:”, “0.15” for “0.08”, “100” for “40”

CDK3/Cyclin E = CDK3/Cyclin E (Homo sapiens, UniProt Q00526); test: CDK3/Cyclin E kinase assay (Nanosyn, Caliper microfluidic); settings: 12-point dose-response, ATP at Km (400 μM), 3 hr
Experimental: as §1, with “CDK3/Cyclin E:” for “CDK1/Cyclin B1:”, “1” for “0.08”, “400” for “40”

CDK4/Cyclin D1 = CDK4/Cyclin D1 (Homo sapiens, UniProt P11802); test: CDK4/Cyclin D1 kinase assay (Nanosyn, Caliper microfluidic); settings: 12-point dose-response, ATP at Km (200 μM), 3 hr; Table 4
Experimental: as §1, with “CDK4/Cyclin D1:” for “CDK1/Cyclin B1:”, “1” for “0.08”, “200” for “40”

CDK5/p35 = CDK5/p35 (Homo sapiens, UniProt Q00535); test: CDK5/p35 kinase assay (Nanosyn, Caliper microfluidic); settings: 12-point dose-response, ATP at Km (20 μM), 3 hr
Experimental: as §1, with “CDK5/p35:” for “CDK1/Cyclin B1:”, “0.05” for “0.08”, “20” for “40”

CDK5/p25 = CDK5/p25 (Homo sapiens, UniProt Q00535); test: CDK5/p25 kinase assay (Nanosyn, Caliper microfluidic); settings: 12-point dose-response, ATP at Km (20 μM), 3 hr
Experimental: as §1, with “CDK5/p25:” for “CDK1/Cyclin B1:”, “0.1” for “0.08”, “20” for “40”

CDK6/Cyclin D3 = CDK6/Cyclin D3 (Homo sapiens, UniProt Q00534); test: CDK6/Cyclin D3 kinase assay (Nanosyn, Caliper microfluidic); settings: 12-point dose-response, ATP at Km (300 μM), 3 hr
Experimental: as §1, with “CDK6/Cyclin D3:” for “CDK1/Cyclin B1:”, “2” for “0.08”, “300” for “40”

CDK7/Cyclin H = CDK7/Cyclin H (Homo sapiens, UniProt P50613); test: CDK7/Cyclin H kinase assay (Nanosyn, Caliper microfluidic); settings: 12-point dose-response, ATP at Km (50 μM), 17 hr
Experimental: as §1, with “CDK7/Cyclin H:” for “CDK1/Cyclin B1:”, “10” for “0.08”, “50” for “40”, “17” for “3”

CDK9/Cyclin T = CDK9/Cyclin T (Homo sapiens, UniProt P50750); test: CDK9/Cyclin T kinase assay (Nanosyn, Caliper microfluidic); settings: 12-point dose-response, ATP at Km (10 μM), 17 hr; Table 5
Experimental: as §1, with “[…]:” for “CDK1/Cyclin B1:”, “5” for “0.08”, “10” for “40”, “17” for “3”

CDK4/Cyclin D1, sequence (P11802 whole entry): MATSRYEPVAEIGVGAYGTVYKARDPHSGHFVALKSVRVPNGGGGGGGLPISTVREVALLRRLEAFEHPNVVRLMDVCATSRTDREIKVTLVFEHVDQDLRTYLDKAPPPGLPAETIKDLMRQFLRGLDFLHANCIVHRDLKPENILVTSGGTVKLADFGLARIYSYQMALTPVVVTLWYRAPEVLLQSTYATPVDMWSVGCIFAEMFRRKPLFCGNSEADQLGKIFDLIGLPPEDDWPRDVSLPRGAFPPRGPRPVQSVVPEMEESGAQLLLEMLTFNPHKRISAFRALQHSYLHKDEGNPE
CDK4/Cyclin D1, sequence (P24385 whole entry partner): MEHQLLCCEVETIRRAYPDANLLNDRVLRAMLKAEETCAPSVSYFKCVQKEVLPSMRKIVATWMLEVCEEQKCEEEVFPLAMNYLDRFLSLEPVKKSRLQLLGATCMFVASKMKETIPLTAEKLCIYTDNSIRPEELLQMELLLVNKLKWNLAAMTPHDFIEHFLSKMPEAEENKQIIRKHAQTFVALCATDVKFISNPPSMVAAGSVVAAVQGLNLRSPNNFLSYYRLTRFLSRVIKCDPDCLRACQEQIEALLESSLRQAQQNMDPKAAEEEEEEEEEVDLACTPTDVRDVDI
CDK5/p35, sequence (Q00535 whole entry): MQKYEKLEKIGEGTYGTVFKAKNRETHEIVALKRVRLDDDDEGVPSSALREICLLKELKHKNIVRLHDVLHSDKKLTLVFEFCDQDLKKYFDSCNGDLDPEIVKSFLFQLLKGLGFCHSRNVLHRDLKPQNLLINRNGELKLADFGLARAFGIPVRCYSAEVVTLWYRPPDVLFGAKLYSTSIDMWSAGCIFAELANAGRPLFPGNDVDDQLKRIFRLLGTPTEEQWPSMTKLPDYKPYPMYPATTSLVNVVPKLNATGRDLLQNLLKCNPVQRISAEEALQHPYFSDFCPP
CDK5/p35, sequence (Q15078 whole entry partner): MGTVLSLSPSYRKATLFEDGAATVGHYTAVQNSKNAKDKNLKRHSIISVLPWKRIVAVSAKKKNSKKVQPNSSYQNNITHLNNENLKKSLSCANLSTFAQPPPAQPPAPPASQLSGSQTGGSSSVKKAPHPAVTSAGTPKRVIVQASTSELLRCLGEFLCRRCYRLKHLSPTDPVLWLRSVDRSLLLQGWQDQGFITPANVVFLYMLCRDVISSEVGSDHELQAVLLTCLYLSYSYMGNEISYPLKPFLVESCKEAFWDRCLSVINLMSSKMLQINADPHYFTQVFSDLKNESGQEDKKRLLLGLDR
CDK5/p25, sequence (Q00535 whole entry): as the sequence (Q00535 whole entry) above
CDK5/p25, sequence (Q15078 99-307 partner limits assumed): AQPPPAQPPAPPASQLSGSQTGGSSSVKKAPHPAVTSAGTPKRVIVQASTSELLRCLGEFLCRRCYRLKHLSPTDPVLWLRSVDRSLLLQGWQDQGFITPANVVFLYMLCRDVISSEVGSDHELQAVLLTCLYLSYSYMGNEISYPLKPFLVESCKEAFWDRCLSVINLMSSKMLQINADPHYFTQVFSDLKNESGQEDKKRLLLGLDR
CDK1/Cyclin B1, sequence (P06493 whole entry): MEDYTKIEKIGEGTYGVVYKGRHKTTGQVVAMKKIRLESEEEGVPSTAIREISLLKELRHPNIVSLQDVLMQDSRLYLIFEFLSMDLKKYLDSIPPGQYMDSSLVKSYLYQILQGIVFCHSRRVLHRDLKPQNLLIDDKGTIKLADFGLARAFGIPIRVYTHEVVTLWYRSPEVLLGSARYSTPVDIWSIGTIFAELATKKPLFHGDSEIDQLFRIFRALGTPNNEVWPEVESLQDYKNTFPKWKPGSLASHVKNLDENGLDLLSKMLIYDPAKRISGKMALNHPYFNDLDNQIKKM
CDK1/Cyclin B1, sequence (P14635 whole entry partner): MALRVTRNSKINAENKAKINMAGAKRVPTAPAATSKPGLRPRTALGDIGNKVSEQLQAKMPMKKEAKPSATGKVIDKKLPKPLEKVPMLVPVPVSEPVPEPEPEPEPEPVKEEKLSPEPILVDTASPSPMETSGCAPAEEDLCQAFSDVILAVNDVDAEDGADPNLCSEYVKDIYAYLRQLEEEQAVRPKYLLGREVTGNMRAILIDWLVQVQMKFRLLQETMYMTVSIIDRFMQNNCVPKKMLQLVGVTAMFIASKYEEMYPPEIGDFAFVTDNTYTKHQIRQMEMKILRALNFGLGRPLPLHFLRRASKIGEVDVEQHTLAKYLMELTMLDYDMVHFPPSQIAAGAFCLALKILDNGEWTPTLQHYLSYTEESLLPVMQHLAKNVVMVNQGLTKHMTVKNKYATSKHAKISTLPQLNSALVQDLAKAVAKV
CDK9/Cyclin T, sequence (P50750 whole entry): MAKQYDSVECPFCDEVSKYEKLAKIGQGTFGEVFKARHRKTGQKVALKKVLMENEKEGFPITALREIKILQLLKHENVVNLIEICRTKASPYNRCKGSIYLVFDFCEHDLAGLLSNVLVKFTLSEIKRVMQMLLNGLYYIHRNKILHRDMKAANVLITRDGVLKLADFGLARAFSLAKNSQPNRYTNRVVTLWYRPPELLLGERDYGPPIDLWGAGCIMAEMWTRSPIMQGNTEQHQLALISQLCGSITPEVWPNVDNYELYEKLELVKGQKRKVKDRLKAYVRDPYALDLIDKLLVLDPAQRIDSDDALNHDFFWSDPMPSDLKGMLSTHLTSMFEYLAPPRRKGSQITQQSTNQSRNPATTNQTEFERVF
CDK9/Cyclin T, sequence (O60563 whole entry partner): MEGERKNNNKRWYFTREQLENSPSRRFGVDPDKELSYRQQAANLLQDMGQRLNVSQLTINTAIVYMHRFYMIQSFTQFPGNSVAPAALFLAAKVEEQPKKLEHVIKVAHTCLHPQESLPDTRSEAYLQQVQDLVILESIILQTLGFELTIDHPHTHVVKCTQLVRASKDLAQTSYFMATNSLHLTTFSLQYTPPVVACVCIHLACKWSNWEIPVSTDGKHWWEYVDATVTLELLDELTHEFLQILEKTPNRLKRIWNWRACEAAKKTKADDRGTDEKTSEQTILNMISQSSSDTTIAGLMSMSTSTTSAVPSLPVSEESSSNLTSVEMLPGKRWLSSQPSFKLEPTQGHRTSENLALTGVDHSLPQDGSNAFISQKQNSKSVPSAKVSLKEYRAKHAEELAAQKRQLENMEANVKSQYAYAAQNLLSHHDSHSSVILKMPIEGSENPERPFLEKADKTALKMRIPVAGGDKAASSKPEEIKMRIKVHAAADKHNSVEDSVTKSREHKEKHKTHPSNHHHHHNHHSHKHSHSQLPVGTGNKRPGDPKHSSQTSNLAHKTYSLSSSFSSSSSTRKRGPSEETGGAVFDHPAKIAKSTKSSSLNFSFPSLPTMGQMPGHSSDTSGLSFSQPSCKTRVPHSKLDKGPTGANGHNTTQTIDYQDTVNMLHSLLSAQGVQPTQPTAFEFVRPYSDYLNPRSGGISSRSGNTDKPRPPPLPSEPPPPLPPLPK
CDK7/Cyclin H, sequence (P50613 whole entry): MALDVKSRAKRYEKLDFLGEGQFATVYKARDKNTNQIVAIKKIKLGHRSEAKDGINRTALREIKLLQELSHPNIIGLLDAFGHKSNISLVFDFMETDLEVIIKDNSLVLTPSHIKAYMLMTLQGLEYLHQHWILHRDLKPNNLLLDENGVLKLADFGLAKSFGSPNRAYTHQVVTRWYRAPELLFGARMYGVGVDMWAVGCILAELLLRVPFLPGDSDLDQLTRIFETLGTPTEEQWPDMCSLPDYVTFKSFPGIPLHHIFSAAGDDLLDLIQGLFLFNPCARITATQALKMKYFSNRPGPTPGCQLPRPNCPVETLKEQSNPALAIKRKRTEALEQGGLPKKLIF
CDK7/Cyclin H, sequence (P51946 whole entry partner): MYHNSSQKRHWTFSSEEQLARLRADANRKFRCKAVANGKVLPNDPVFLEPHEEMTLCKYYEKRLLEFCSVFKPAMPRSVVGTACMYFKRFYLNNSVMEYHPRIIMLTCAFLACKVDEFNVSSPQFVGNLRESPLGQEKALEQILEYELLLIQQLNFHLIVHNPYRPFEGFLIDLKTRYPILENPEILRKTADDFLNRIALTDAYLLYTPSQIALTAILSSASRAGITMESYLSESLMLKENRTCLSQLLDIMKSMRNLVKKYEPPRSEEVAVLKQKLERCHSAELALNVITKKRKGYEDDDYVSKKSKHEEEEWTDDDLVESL
CDK7/Cyclin H, sequence (P51948 whole entry partner): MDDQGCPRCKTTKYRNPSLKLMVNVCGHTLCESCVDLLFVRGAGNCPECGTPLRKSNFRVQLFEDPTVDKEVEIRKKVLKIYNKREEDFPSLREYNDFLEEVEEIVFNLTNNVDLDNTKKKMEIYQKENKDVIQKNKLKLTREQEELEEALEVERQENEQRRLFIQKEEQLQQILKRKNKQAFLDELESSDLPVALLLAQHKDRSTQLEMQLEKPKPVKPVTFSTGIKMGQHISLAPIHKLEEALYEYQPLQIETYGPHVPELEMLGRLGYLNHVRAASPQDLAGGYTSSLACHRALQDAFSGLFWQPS

| SMILES | IC50 (CDK1/Cyclin B1) | IC50 (CDK2/Cyclin A) | IC50 (CDK2/Cyclin E) | IC50 (CDK3/Cyclin E) | IC50 (CDK4/Cyclin D1) | IC50 (CDK5/p35) | IC50 (CDK5/p25) | IC50 (CDK6/Cyclin D3) | IC50 (CDK7/Cyclin H) | IC50 (CDK9/Cyclin T) |
| --- | --- | --- | --- | --- | --- | --- | --- | --- | --- | --- |
| O=C1NCC2(CCCCC2)n2c1cc1cnc(N[C@H]3CC[C@H](Nc4ncc(F)cn4)CC3)nc12 [Compound 19, 2′-(((1,4-trans)-4-((5-fluoropyrimidin-2-yl)amino)cyclohexyl)-12-azaneyl)-7′,8′-dihydro-6′H-spiro[cyclohexane-1,9′-pyrazino[1′,2′:1,5]pyrrolo[2,3-d]pyrimidin]-6′-one] | 96 nM | 71 nM | 110 nM | 220 nM | 8.6 nM | 120 nM | 120 nM | 75 nM | 740 nM | 2.1 nM |
| O=C1NCC2(CCCCC2)n2c1cc1cnc(NC(=O)[C@H]3CCNC3)nc12 [Compound 33, (S)-N-(6′-oxo-7′,8′-dihydro-6′H-spiro[cyclohexane-1,9′-pyrazino[1′,2′:1,5]pyrrolo[2,3-d]pyrimidin]-2′-yl)pyrrolidine-3-carboxamide] | 16000 nM | 6100 nM | 26000 nM | 23000 nM | 3300 nM | 34000 nM | 34000 nM | 12000 nM | 20000 nM | 35 nM |
| O=C1CC[C@H](Nc2ncc3cc4n(c3n2)C2(CCCCC2)CNC4=O)CN1 [Compound 24, (S)-2′-((6-oxopiperidin-3-yl)amino)-7′,8′-dihydro-6′H-spiro[cyclohexane-1,9′-pyrazino[1′,2′:1,5]pyrrolo[2,3-d]pyrimidin]-6′-one] | 560 nM | 220 nM | 240 nM | 290 nM | 250 nM | 330 nM | 260 nM | 1000 nM | 470 nM | 25 nM |
| O=C1NCC2(CCCCC2)n2c1cc1cnc(N[C@H]3CC[C@H](NC4CCOCC4)CC3)nc12 [Compound 16, 2′-(((1r,4r)-4-((tetrahydro-2H-pyran-4-yl)amino)cyclohexyl)amino)-7′,8′-dihydro-6′H-spiro[cyclohexane-1,9′-pyrazino[1′,2′:1,5]pyrrolo[2,3-d]pyrimidin]-6′-one] | 91 nM | 110 nM | 190 nM | 240 nM | 13 nM | 470 nM | 480 nM | 72 nM | 170 nM | 2.7 nM |
| O=C1NCC2(CCCCC2)n2c1cc1cnc(N[C@H]3Cc4ccccc4NC3=O)nc12 [Compound 27, (S)-2′-((2-oxo-1,2,3,4-tetrahydroquinolin-3-yl)amino)-7′,8′-dihydro-6′H-spiro[cyclohexane-1,9′-pyrazino[1′,2′:1,5]pyrrolo[2,3-d]pyrimidin]-6′-one] | 8900 nM | 8000 nM | 11000 nM | 26000 nM | 270 nM | 10000 nM | 9600 nM | 970 nM | 14000 nM | 560 nM |
| O=C1NCC2(CCCCC2)n2c1cc1cnc(NC(=O)[C@H]3CNCCN3)nc12 [Compound 36, (R)-N-(6′-oxo-7′,8′-dihydro-6′H-spiro[cyclohexane-1,9′-pyrazino[1′,2′:1,5]pyrrolo[2,3-d]pyrimidin]-2′-yl)piperazine-2-carboxamide] | > 100000 nM | 88000 nM | > 100000 nM | > 100000 nM | 9400 nM | > 100000 nM | > 100000 nM | 82000 nM | > 100000 nM | 240 nM |

Continued, values first:

| IC50 (CDK1/Cyclin B1) | IC50 (CDK2/Cyclin A) | IC50 (CDK2/Cyclin E) | IC50 (CDK3/Cyclin E) | IC50 (CDK4/Cyclin D1) | IC50 (CDK5/p35) | IC50 (CDK5/p25) | IC50 (CDK6/Cyclin D3) | IC50 (CDK7/Cyclin H) | IC50 (CDK9/Cyclin T) | SMILES |
| --- | --- | --- | --- | --- | --- | --- | --- | --- | --- | --- |
| 280 nM | 280 nM | 190 nM | 64 nM | 310 nM | 180 nM | 190 nM | 1100 nM | 42 nM | 23 nM | C1=NCC2(CCCCC2)n2c1cc1cnc(N[C@H]3CCCNC3)nc12 [Compound 50, (S)-N-(piperidin-3-yl)-8′H-spiro[cyclohexane-1,9′-pyrazino[1′,2′:1,5]pyrrolo[2,3-d]pyrimidin]-2′-amine] |
| 510 nM | 390 nM | 1100 nM | 1000 nM | 51 nM | 1300 nM | 1200 nM | 230 nM | 330 nM | 9 nM | O=C1NCC2(CCCCC2)n2c1cc1cnc(N[C@@H]3CCCNC3)nc12 [Compound 48, (R)-2′-(piperidin-3-ylamino)-7′,8′-dihydro-6′H-spiro[cyclohexane-1,9′-pyrazino[1′,2′:1,5]pyrrolo[2,3-d]pyrimidin]-6′-one] |
| 330 nM | 150 nM | 310 nM | 210 nM | 6.7 nM | 1100 nM | 970 nM | 23 nM | 85 nM | 4.3 nM | S=C1NCC2(CCCCC2)n2c1cc1cnc(N[C@@H]3CCCNC3)nc12 [Compound 41, (R)-2′-(piperidin-3-ylamino)-7′,8′-dihydro-6′H-spiro[cyclohexane-1,9′-pyrazino[1′,2′:1,5]pyrrolo[2,3-d]pyrimidine]-6′-thione] |
